Measurements reported in US7009053B2, “Quinoline derivatives as caspase-3 inhibitor, preparation for producing the same and pharmaceutical composition comprising the same” (Yungjin Pharmaceuticals Co., Ltd., priority 2002, dated 2006).
pIC50: −log10 of the molar value.

Molecular target: T1, human recombinant caspase-3 enzyme (Homo sapiens, UniProt P42574)
T1 construct: each cDNA encoding p12 and p17 subunits of caspase-3 was PCR-amplified respectively and subcloned into a pET3-a expression vector; made in house; host or cells: E. coli BL21 (DE3), pET3-a vector
T1 sequence (P42574 29-175 limits assumed): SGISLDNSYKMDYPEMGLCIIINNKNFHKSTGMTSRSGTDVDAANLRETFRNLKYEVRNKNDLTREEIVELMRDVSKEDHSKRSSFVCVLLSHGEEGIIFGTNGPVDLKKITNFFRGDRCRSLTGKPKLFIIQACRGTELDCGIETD
T1 sequence (P42574 176-277 limits assumed): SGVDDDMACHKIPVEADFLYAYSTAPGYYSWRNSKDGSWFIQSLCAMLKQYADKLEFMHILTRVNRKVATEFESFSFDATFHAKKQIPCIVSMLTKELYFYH
Assay: Enzyme assay of caspase-3 inhibition (fluorogenic Ac-DEVD-AFC substrate)
Format: biochemical
Settings: for pIC50: caspase-3, Table 1, tested at 2, 20 or 200 uM, read-out: IC50; for inhibitory activity against caspase-3 (in words): compared to the reference compound
Description: The active form of human recombinant caspase-3 enzyme was prepared from Escherichia coli (E.coli) heterologous expression system as described previously (Rotonda J. et al., Nat Struct Biol 3(7): 617–25, 1996). Briefly, each cDNA encoding p12 and p17 subunits of caspase-3 was PCR-amplified respectively and subcloned into a pET3-a expression vector (Novagen), which was followed by transfection into E. coli strain BL21 (DE3). The bacterial cultures (0.5 liters for each transfectant) were grown at 37° C. until logarithmic phase of cell growth and isopropyl-1-thio-β-D-galactopyranoside (IPTC) (Pharmacia) was then added to a final concentration of 0.5 mM. After 3 hr of incubation, the bacteria were pelleted and lysed in a lysis buffer (20 mM Tris hydrochloride pH 8.0, 1 mM EDTA, 2 mM dithiothreitol (DTT), 100 mM NaCl, 200 ug/ml of lysozyme) through sonication. After centrifugation, the pellets from each transfectants were dissolved in 6 M urea and were mixed and rapidly diluted 50 fold in 100 mM HEPES/KOH (pH 7.5), 10% sucrose, 0.1% CHAPS, 0.5 M NaCl, 10 mM DTT. The concentration of protein was determined with the Bradford method (Bio-Rad), with bovine serum albumin as the standard. To verify whether expected size of proteins were obtained, the cell lysates from each cDNA transfectants were analyzed on 14% SDS PAGE and visualized with Coomassie blue staining.
200 ul of the following assay solution was contained in each well of 96-well plate: 20 mM HEPES/KOH (pH 7.5), 10% sucrose, 10 mM DTT, 0.2 mM EDTA, 0.1% CHAPS, 200 ng of enzymes, and 2.5 uM of the substrate. The fluorogenic substrate […]-Asp-Glu-Val-Asp-7-amino-4-trifluoromethylcoumarin (Ac-DEVD-AFC) was purchased from Sigma (St Louis, Mo.) and dissolved in DMSO as a 2.5 mM stock solution and kept at −20° C. before use.
After 1 hr incubation at 37° C., the release of AFC (7-amino-4-trifluoromethyl-coumarin) was monitored in a fluorometric plate reader (Victor 1420). The excitation and emission wavelengths were 400 nm and 510 nm, respectively. The inhibitory effects of compounds on enzyme activities were determined with 2, 20 or 200 uM concentrations of the test compound run in triplicate tubes, and isotherms from three assays were calculated by computerized nonlinear regression analysis (GraphPad Prism Program, San Diego, Calif.) to yield IC50 values.

SMILES | pIC50 | inhibition at 20 µM (caspase-3 activity, at 20 uM) [%] | inhibitory activity against caspase-3 (in words) | %-Inhibition (caspase-3 activity, at 20 uM) [%]
CCOC(=O)c1cnc2c(N)cccc2c1NCc1ccccc1OC [Example 32, 8-Amino-4-(2-methoxy-benzylamino)-quinoline-3-carboxylic acid ethyl ester] | 4.77 | 82.9 |  | 
CCOC(=O)c1cnc2c(N)cccc2c1NCc1ccccc1F [Example 29, 8-Amino-4-(2-fluoro-benzylamino)-quinoline-3-carboxylic acid ethyl ester] | 4.73 | 78.8 |  | 
CCOC(=O)c1cnc2c(N)cccc2c1NCCCCc1ccccc1 [Example 40, 8-Amino-4-(4-phenyl-butylamino)-quinoline-3-carboxylic acid ethyl ester] | 4.79 | 81.7 |  | 
CCOC(=O)c1cnc2c(N)cccc2c1NCc1cccc(F)c1 [Example 30, 8-Amino-4-(3-fluoro-benzylamino)-quinoline-3-carboxylic acid ethyl ester] | 4.72 | 76.9 |  | 
CCOC(=O)c1cnc2c(N)cccc2c1NCCc1ccccc1N [Example 46, 8-Amino-4-[2-(2-amino-phenyl)-ethylamino]-quinoline-3-carboxylic acid ethyl ester] | 4.79 | 83.8 |  | 
CCOC(=O)c1cnc2c(N)cccc2c1NCc1cccc(OC)c1 [Example 34, 8-Amino-4-(3-methoxy-benzylamino)-quinoline-3-carboxylic acid ethyl ester] | 4.80 | 83.9 |  | 
CCOC(=O)c1cnc2c(N)cccc2c1NCc1ccc(Cl)cc1 [Example 42, 8-Amino-4-(4-chloro-benzylamino)-quinoline-3-carboxylic acid ethyl ester] | 4.77 | 82.9 |  | 
CCOC(=O)c1cnc2c(N)cccc2c1NCc1cccc2ccccc12 [Example 19, 8-Amino-4-[(naphthalen-1-ylmethyl)-amino]-quinoline-3-carboxylic acid ethyl ester] | 4.83 | 84.9 |  | 
CCOC(=O)c1cnc2c(N)cccc2c1NCc1cccc(OC)c1OC [Example 44, 8-Amino-4-(2,3-dimethoxy-benzylamino)-quinoline-3-carboxylic acid ethyl ester] | 4.74 | 72.1 |  | 
CCOC(=O)c1cnc2c(N)cccc2c1NC1CCCCC1 [Example 18, 8-Amino-4-cyclohexylamino-quinoline-3-carboxylic acid ethyl ester] | 4.85 | 84.7 |  | 
CCOC(=O)c1cnc2c(N)cccc2c1NCCCc1ccccc1 [Example 39, 8-Amino-4-(3-phenyl-propylamino)-quinoline-3-carboxylic acid ethyl ester] | 4.79 | 78.8 |  | 
CCOC(=O)c1cnc2c(N)cccc2c1NCc1ccc(Cl)cc1Cl [Example 43, 8-Amino-4-(2,4-dichloro-benzylamino)-quinoline-3-carboxylic acid ethyl ester] | 4.57 | 54.7 |  | 
CCCNc1c(C(=O)OCC)cnc2c(N)cccc12 [Example 45, 8-Amino-4-propylamino-quinoline-3-carboxylic acid ethyl ester] | 4.80 | 85 |  | 
CCOC(=O)c1cnc2c(N)cccc2c1NC(CC)COC (stereo not shown) [Example 25, 8-Amino-4-(1-methoxymethyl-propylamino)-quinoline-3-carboxylic acid ethyl ester] | 4.78 | 88.8 |  | 
CCOC(=O)c1cnc2c(N)cccc2c1NCc1ccc(OC)cc1 [Example 33, 8-Amino-4-(4-methoxy-benzylamino)-quinoline-3-carboxylic acid ethyl ester] | 4.80 | 86.5 |  | 
CC(C)OC(=O)c1cnc2c(N)cccc2c1NCc1ccccn1 [Example 61, 8-Amino-4-[(pyridin-2-ylmethyl)-amino]-quinoline-3-carboxylic acid isopropyl ester] |  | 81.4 |  | 
CCOC(=O)c1cnc2c(N)cccc2c1NCc1ccc2c(c1)OCO2 [Example 23, 8-Amino-4-[(benzo[1,3]dioxol-5-ylmethyl)-amino]-quinoline-3-carboxylic acid ethyl ester] | 4.84 | 86 |  | 
CCOC(=O)c1cnc2c(N)cccc2c1NCC(C)C [Example 27, 8-Amino-4-isobutylamino-quinoline-3-carboxylic acid ethyl ester] | 4.80 | 87.8 |  | 
CCOC(=O)c1cnc2c(N)cccc2c1NCc1ccc(C)cc1 [Example 37, 8-Amino-4-(4-methyl-benzylamino)-quinoline-3-carboxylic acid ethyl ester] | 4.82 | 82.1 |  | 
CCOC(=O)c1cnc2c(N)cccc2c1NCc1ccccc1 [Example 17, 8-Amino-4-benzylamino-quinoline-3-carboxylic acid ethyl ester] | 4.84 | 81.7 |  | 
CCOC(=O)c1cnc2c(N)cccc2c1NCc1ccccn1 [Example 20, 8-Amino-4-[(pyridin-2-ylmethyl)-amino]-quinoline-3-carboxylic acid ethyl ester] | 4.88 | 90.1 | superior activity | 
CCOC(=O)c1cnc2c(N)cccc2c1NCCc1ccccc1 [Example 38, 8-Amino-4-phenethylamino-quinoline-3-carboxylic acid ethyl ester] | 4.78 | 77.2 |  | 
CN1C(=O)C(=O)c2cc(S(=O)(=O)N3CCC[C@H]3COc3ccccc3)ccc21 [(S)-1-methyl-5-{1-[2-(phenoxymethyl)pyrrolidinyl]sulfonyl} isatin, reference compound] |  |  |  | 76.8
CCOC(=O)c1cnc2c(N)cccc2c1NCCCOC(C)C [Example 31, 8-Amino-4-(3-isopropoxy-propylamino)-quinoline-3-carboxylic acid ethyl ester] | 4.87 | 92.5 | superior activity | 
CCCCNc1c(C(=O)OCC)cnc2c(N)cccc12 [Example 26, 8-Amino-4-butylamino-quinoline-3-carboxylic acid ethyl ester] | 4.81 | 88.9 |  | 
CCOC(=O)c1cnc2c(N)cccc2c1NCCOC [Example 35, 8-Amino-4-(2-methoxy-ethylamino)-quinoline-3-carboxylic acid ethyl ester] | 4.87 | 91.5 | superior activity | 
CCOC(=O)c1cnc2c(N)cccc2c1NCc1ccccc1Cl [Example 41, 8-Amino-4-(2-chloro-benzylamino)-quinoline-3-carboxylic acid ethyl ester] | 4.75 | 78.4 |  | 
CCOC(=O)c1cnc2c(N)cccc2c1NCc1cccs1 [Example 21, 8-Amino-4-[(thiophen-2-ylmethyl)-amino]-quinoline-3-carboxylic acid ethyl ester] | 4.72 | 78 |  | 
CCOC(=O)c1cnc2c(N)cccc2c1NC(C)C [Example 28, 8-Amino-4-isopropylamino-quinoline-3-carboxylic acid ethyl ester] | 4.75 | 85.2 |  | 
CCOC(=O)c1cnc2c(N)cccc2c1NCc1cc(OC)cc(OC)c1 [Example 47, 8-Amino-4-(3,5-dimethoxy-benzylamino)-quinoline-3-carboxylic acid ethyl ester] | 4.67 | 69.3 |  | 
